Literature values, collected in patent US20120077872A1, “PRESERVATIVE-FREE PHARMACEUTICAL TETRAHYDROLIPSTATIN COMPOSITIONS” (EMS S.A., priority 2009, published 2012).

Conditions: stored at dry atmosphere

temperature at which degradation starts: around 40 °C
SMILES: CCCCCCCCCCC[C@@H](C[C@@H]1OC(=O)[C@H]1CCCCCC)OC(=O)[C@H](CC(C)C)NC=O [THL, N-Formyl-L-leucine (1S)-1-[[(2S,3S)-3-hexyl-4-oxo-2-oxetanyl]methyl]dodecyl ester]
